Laboratory results taken from ChEMBL document CHEMBL5465560, “Selectivity Literature for EUbOPEN Chemogenomic Library” (2024).
Values belong to the molecule of their own block, whether it stands above or below them.

Legend:
[1] = target: T1, Ephrin type-A receptor 8 (Homo sapiens) (UniProt P29322); conditions: at 10 µM
T1 sequence (whole entry): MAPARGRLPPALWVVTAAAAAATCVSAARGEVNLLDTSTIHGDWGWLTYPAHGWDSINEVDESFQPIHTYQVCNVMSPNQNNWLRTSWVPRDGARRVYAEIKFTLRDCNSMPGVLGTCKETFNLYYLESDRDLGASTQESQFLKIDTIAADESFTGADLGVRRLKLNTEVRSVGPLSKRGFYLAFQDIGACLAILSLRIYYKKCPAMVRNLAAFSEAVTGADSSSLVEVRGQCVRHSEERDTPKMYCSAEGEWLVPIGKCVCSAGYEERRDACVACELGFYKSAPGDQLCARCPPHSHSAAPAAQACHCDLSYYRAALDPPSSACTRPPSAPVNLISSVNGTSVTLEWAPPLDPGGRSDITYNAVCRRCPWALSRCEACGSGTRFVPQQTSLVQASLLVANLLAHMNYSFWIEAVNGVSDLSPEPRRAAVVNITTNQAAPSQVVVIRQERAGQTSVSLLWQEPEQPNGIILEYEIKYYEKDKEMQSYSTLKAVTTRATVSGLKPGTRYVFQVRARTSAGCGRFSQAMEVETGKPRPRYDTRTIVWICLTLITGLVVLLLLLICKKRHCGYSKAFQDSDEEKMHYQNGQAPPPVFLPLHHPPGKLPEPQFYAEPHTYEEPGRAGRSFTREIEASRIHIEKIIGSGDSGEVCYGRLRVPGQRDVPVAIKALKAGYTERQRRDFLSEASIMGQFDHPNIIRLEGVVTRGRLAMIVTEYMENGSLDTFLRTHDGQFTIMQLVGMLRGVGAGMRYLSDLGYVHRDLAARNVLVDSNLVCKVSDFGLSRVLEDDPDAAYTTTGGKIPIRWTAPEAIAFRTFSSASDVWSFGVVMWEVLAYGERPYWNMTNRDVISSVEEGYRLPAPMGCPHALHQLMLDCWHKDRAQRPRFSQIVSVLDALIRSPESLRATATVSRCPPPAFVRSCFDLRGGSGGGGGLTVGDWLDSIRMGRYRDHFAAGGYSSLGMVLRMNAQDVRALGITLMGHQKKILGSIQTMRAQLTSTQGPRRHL

[2] = target: Casein kinase II subunit alpha (Homo sapiens, UniProt P68400); assay: Selectivity interaction (Kinase panel (literature)) EUB0001199aCl CSNK2A1; conditions: at 1 µM
Casein kinase II subunit alpha, sequence (P68400 whole entry, looked up): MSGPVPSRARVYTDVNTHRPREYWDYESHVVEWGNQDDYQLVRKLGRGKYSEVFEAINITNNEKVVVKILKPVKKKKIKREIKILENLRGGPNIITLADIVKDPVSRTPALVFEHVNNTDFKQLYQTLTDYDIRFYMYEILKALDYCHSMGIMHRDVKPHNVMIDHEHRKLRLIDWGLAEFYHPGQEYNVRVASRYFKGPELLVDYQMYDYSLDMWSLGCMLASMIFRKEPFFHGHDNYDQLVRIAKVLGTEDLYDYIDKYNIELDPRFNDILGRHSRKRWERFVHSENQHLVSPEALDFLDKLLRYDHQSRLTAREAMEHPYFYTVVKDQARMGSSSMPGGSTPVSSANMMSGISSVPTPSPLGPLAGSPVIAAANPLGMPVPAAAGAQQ

[3] = target: T2, Alpha-2C adrenergic receptor (Homo sapiens) (UniProt P18825); assay: Selectivity interaction (GPCR panel (PDSP screen)) EUB0001079a ADRA2C; conditions: at 10 µM
T2 sequence (whole entry): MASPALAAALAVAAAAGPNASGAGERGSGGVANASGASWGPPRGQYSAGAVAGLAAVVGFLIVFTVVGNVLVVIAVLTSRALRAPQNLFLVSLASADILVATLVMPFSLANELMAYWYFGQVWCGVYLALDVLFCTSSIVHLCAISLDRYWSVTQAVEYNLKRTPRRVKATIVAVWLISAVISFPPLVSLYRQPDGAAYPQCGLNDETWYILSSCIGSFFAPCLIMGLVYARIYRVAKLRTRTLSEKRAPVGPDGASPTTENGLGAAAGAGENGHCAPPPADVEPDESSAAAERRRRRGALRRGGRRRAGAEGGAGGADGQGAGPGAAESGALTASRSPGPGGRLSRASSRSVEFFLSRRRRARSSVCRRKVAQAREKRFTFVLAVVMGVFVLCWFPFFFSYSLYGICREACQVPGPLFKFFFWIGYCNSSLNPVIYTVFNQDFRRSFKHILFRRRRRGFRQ

[4] = target: T3, Hormonally up-regulated neu tumor-associated kinase (Homo sapiens) (UniProt P57058); assay: Selectivity interaction (KinomeScan (DiscoverX)) EUB0001619a HUNK; conditions: at 1 µM
T3 sequence (whole entry): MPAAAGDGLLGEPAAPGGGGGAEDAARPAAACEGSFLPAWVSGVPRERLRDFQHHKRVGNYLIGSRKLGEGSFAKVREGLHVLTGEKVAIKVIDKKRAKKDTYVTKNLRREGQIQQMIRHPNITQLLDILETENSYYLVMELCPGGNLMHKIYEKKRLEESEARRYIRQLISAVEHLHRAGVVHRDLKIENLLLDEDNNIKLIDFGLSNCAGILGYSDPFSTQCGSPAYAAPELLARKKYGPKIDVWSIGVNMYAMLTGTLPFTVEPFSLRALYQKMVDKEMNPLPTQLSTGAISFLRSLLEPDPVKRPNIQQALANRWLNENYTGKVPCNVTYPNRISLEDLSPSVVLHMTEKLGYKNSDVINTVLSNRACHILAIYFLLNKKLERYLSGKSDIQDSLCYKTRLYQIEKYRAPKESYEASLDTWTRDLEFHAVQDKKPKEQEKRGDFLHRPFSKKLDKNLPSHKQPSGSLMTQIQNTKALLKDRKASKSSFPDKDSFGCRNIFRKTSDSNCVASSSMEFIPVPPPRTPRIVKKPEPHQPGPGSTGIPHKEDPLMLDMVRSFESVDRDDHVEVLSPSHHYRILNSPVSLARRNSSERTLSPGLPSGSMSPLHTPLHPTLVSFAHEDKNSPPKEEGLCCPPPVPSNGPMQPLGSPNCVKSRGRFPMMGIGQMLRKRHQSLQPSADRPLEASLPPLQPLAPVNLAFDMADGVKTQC

[5] = target: T4, Aurora kinase A (Homo sapiens) (UniProt O14965); assay: Selectivity interaction (ActivX KiNativ screen (kinase selectivity in THP-1 cell lysates)) EUB0000639a STK6; assay type: subcellular; conditions: lysate, at 0.2 µM
T4 sequence (whole entry): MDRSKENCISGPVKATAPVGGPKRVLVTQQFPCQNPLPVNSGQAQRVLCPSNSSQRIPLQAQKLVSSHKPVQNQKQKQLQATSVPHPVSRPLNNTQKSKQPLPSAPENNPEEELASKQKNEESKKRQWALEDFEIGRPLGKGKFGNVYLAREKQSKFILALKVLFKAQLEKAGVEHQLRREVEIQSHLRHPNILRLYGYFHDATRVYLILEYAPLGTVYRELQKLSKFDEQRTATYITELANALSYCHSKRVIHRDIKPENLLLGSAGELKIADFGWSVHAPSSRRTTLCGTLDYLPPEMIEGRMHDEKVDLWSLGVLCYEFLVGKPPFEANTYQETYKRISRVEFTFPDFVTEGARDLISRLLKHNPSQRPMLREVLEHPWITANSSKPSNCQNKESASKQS

% of control [1]: 100%
Structure (SMILES): CCN(CC)CCCCNc1ncc2cc(-c3cc(OC)cc(OC)c3)c(NC(=O)NC(C)(C)C)nc2n1

% of inhibition [2]: -3%
Structure (SMILES): CN1Cc2nccc(-c3cn(C)nc3-c3ccc(F)cc3)c2C1=O

% of inhibition [5]: -1%
Structure (SMILES): CC[C@@H]1[C@H](F)C(=O)N[C@@H]1COc1nccc2cc(C(N)=O)c(OC)cc12 [ZIMLOVISERTIB]

The remaining lines, values behind:

Structure (SMILES): Nc1cnc(N2CCc3cc(S(=O)(=O)Nc4c(F)cc(Cl)cc4F)cc(N4CCCC4=O)c32)nc1 [TP-020n]
% of inhibition [3]: -14.3%

Structure (SMILES): N#Cc1cccc(-c2c[nH]c3ncnc(N4CCOCC4)c23)c1
% of control [4]: 100%
